This note sets out measurements from US10472395B2, “Cyclic peptide analogs and conjugates thereof” (Sirenas LLC, priority 2015, dated 2019).

The subject of one test is HCC1954 cells. The test is described as follows: Inhibitory response of test compounds against HCC1954 cells (method analogous to BT-474). Particulars: Homo sapiens. Type of test: cell-based. As to the method: (§1) BT-474 human mammary gland ductal carcinoma cells were seeded in a clear polystyrene 96-well microculture plate (Corning® Costar® 96-well flat bottom plate, Cat.#3997) in a total volume of 90 μL/well. After 24 hours of incubation in a humidified incubator at 37° C. with 5% CO2 and 95% air, 10 μL of 10×, serially diluted test agents in growth medium were added to each well (10 pt dose response curve, highest concentration 10 μM of test agent). After 72 hours of culture in a humidified incubator at 37° C., in an atmosphere of 5% CO2 and 95% air, the plated cells and Cell Titer-Glo® (Promega G7571) reagents were brought to room temperature to equilibrate for 30 minutes. 100 μL of Cell Titer-Glo® reagent was added to each well. The plate was shaken for two minutes and then left to equilibrate for ten minutes. The media/Cell Titer-Glo® reagent was transferred to a white polystyrene 96-well microculture plate (Corning® Costar® 96-well flat bottom plate, Cat.#3917) before reading luminescence on a Tecan GENios microplate reader.
(§2) Percent inhibition of cell growth was calculated relative to untreated control wells. The IC50 value for the test agents was determined using Prism 6.05 by curve-fitting of the data using the following four parameter-logistic equation:
(§3) [formula] where Top is the maximal % of control absorbance, Bottom is the minimal % of control absorbance at the highest agent concentration, Y is the % of control absorbance, X is the agent concentration, IC50 is the concentration of agent that inhibits cell growth by 50% compared to the control cells, and n is the slope of the curve.
Inhibitory response of test compounds against HCC1954 cells was determined using a method analogous to that used for BT-474 cells.

Test [1] concerns BT-474 human mammary gland ductal carcinoma cells. The test is described as follows: Inhibitory response of test compounds against BT-474 cells (Cell Titer-Glo, 72 h). Type of test: cell-based. Particulars: Homo sapiens. As to the method:
as §1, §2, §3

The structures appear in SMILES notation. Numbered stars: 1 amine (or outer) side, 2 acyl side, 3 side chain; on linkers, the order of the positions; unused ones are H or OH. Bridge positions count the residues as written; N and C are the ends. Square brackets hold non-standard residues; d marks the D form. Peptide text beside a SMILES is read from it. ξ: configuration not given here. X6 = C/C=C(\C)[C@@H](O[*:2])[C@@H](C)[C@H](C/C=C(\C)C(=O)[*:1])OCSC; X3 = C/C=C(\C)[C@@H](O[*:2])[C@@H](C)[C@@H](O)C/C=C(\C)C(=O)[*:1]; X2 = C/C(=C\CCC[C@@H](O[*:2])C(C)C)C(=O)[*:1]; X7 = C/C(=C\CCC[C@H](O[*:2])C(C)C)C(=O)[*:1]; aIle = CC[C@@H](C)[C@H](N)C(=O)O; dNMeF = CN[C@H](Cc1ccccc1)C(=O)O; Ile(3ξ) = CCC(C)[C@H](N)C(=O)O; dHica = CC(C)C[C@@H](O)C(=O)O; dNMeA = CN[C@H](C)C(=O)O; Sar = CNCC(=O)O

Consider `C/C=C(\C)[C@H]1OC(=O)[C@@H](C)NC(=O)[C@H](C(C)CC)NC(=O)CN(C)C(=O)[C@@H](Cc2ccccc2)N(C)C(=O)[C@H](C)NC(=O)[C@@H](Cc2ccccc2)NC(=O)/C(C)=C/C[C@H](O)[C@@H]1C` (stereo partly shown) [Compound 64] ([dF]A[dNMeF][Sar][Ile(3ξ)][dA]; linker N-C via X3), for which the IC50 is 20 to 200 nM with HCC1954 cells and < 20 nM in test [1].

For the compound `C/C=C(\C)[C@H]1OC(=O)[C@@H](C)NC(=O)[C@H](C(C)CC)NC(=O)CN(C)C(=O)[C@@H](Cc2ccccc2)N(C)C(=O)[C@H](C)NC(=O)[C@@H](CC(C)C)OC(=O)/C(C)=C/C=C/[C@@H]1C` (stereo partly shown) [Compound 69], the 50% inhibitory concentration (IC50) (with HCC1954 cells; in test [1]) was < 20 nM each time.

As for `C/C=C(\C)[C@H]1OC(=O)[C@@H](C)NC(=O)[C@H]([C@H](C)CC)NC(=O)CN(C)C(=O)[C@@H](Cc2ccccc2)N(C)C(=O)[C@H](C)NC(=O)[C@@H](CC(C)C)OC(=O)/C(C)=C/C[C@H](OC(=O)N(C)CCNC)[C@@H]1C` [Compound 75], the IC50 (in the test with HCC1954 cells; in test [1]) was < 20 nM each time.

Consider `C/C=C(\C)[C@H]1OC(=O)[C@@H](CCCCNC(=O)OC(C)(C)C)NC(=O)[C@H]([C@H](C)CC)NC(=O)CN(C)C(=O)[C@@H](Cc2ccccc2)N(C)C(=O)[C@H](C)NC(=O)[C@@H](CC(C)C)OC(=O)/C(C)=C/C[C@H](CCSC)[C@@H]1C` [Compound 82], for which the IC50 is 20 to 200 nM with HCC1954 cells and < 20 nM in test [1].

As to `C/C=C(\C)[C@H]1OC(=O)[C@@H](CCCCN)NC(=O)[C@H]([C@H](C)CC)NC(=O)CN(C)C(=O)[C@@H](Cc2ccccc2)N(C)C(=O)[C@H](C)NC(=O)[C@@H](CC(C)C)NC(=O)/C(C)=C/C[C@H](OCSC)[C@@H]1C` [Compound 83] ([dL]A[dNMeF][Sar][aIle][dK]; linker N-C via X6), the IC50 (with HCC1954 cells; in test [1]) was > 10000 nM each time.

Regarding `C/C=C(\C)[C@H]1OC(=O)[C@@H](CCCCN)NC(=O)[C@H](C(C)CC)NC(=O)CN(C)C(=O)[C@@H](Cc2ccccc2)N(C)C(=O)[C@H](C)NC(=O)[C@@H](CC(C)C)OC(=O)/C(C)=C/C[C@H](O)[C@@H]1C` (stereo partly shown) [Compound 84], the IC50 (with HCC1954 cells; in test [1]) was 200 to 10000 nM in each case.

In the case of `CCC(C)[C@@H]1NC(=O)CN(C)C(=O)[C@@H](Cc2ccccc2)N(C)C(=O)[C@H](C)NC(=O)[C@@H](CC(C)C)OC(=O)/C(C)=C/CCC[C@@H](C(C)C)OC(=O)[C@@H](C)NC1=O` (stereo partly shown) [Compound 86] ([dHica]A[dNMeF][Sar][Ile(3ξ)][dA]; linker N-C via X7), the IC50 (in the test with HCC1954 cells; in test [1]) was 200 to 10000 nM throughout.

For the compound `CCC(C)[C@@H]1NC(=O)CN(C)C(=O)[C@@H](Cc2ccccc2)N(C)C(=O)[C@H](C)NC(=O)[C@@H](CC(C)C)OC(=O)/C(C)=C/CCC[C@H](C(C)C)OC(=O)[C@@H](C)NC1=O` (stereo partly shown) [Compound 87] ([dHica]A[dNMeF][Sar][Ile(3ξ)][dA]; linker N-C via X2), the IC50 (in the test with HCC1954 cells; in test [1]) was 200 to 10000 nM in each case.

Consider `CCC(C)[C@@H]1NC(=O)CN(C)C(=O)[C@@H](Cc2ccccc2)N(C)C(=O)[C@H](C)NC(=O)[C@@H](CC(C)C)OC(=O)/C(C)=C/CCC[C@@H](C(C)C)OC(=O)[C@@H](C)N(C)C1=O` (stereo partly shown) [Compound 88] ([dHica]A[dNMeF][Sar][Ile(3ξ)][dNMeA]; linker N-C via X7), for which the IC50 (in the test with HCC1954 cells; in test [1]) was 200 to 10000 nM each time.

As to `CCC(C)[C@@H]1NC(=O)CN(C)C(=O)[C@@H](Cc2ccccc2)N(C)C(=O)[C@H](C)NC(=O)[C@@H](CC(C)C)OC(=O)/C(C)=C/CCC[C@H](C(C)C)OC(=O)[C@@H](C)N(C)C1=O` (stereo partly shown) [Compound 89] ([dHica]A[dNMeF][Sar][Ile(3ξ)][dNMeA]; linker N-C via X2), the half-inhibitory concentration (IC50) with HCC1954 cells lay in the range of 200 to 10000 nM; in test [1], 20 to 200 nM.

For the compound `C/C=C(\C)[C@H]1OC(=O)[C@@H](C)NC(=O)[C@H](C(C)CC)NC(=O)CN(C)C(=O)[C@@H](Cc2ccccc2)N(C)C(=O)[C@H](C)NC(=O)[C@@H](CC(C)C)OC(=O)/C(C)=C/CC[C@@H]1C` (stereo partly shown) [Compound 90], the IC50 (in the test on HCC1954 cells; in test [1]) was < 20 nM in each case.

One may read the IC50 as the concentration that gives 50% inhibition. Read a high IC50 as weaker potency.
